Data: article PMC2788660 (Journal of medicinal chemistry, 2009)
One block for each compound: values may come before it. Square brackets hold non-standard residues; d marks the D form. Peptide text beside a SMILES is read from it. * marks the point of attachment. 1Nal = N[C@@H](Cc1cccc2ccccc12)C(=O)O; Asu = N[C@@H](CCCCCC(=O)O)C(=O)O; β3hL = CC(C)C[C@H](N)CC(=O)O; CH2CH2COOH = O=C(O)CC*

Columns and labels:
[1] = target: T1, HDAC8 (Homo sapiens, UniProt Q9BY41); details: relative to 3a
T1 sequence (Q9BY41 1-377): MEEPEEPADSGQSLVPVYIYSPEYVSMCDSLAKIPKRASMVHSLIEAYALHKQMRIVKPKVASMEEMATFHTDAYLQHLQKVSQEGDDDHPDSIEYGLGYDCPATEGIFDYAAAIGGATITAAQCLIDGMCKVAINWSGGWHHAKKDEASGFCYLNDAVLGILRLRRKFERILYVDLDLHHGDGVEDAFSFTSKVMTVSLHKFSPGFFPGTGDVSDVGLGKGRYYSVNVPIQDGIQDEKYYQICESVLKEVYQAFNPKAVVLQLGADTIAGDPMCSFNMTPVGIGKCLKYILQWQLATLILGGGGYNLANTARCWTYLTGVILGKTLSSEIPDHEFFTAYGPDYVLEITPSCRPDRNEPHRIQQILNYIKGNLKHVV

[2] = target: HDAC1 (Homo sapiens, UniProt Q13547); details: relative to 3a
Chain of HDAC1 (Q13547 whole entry): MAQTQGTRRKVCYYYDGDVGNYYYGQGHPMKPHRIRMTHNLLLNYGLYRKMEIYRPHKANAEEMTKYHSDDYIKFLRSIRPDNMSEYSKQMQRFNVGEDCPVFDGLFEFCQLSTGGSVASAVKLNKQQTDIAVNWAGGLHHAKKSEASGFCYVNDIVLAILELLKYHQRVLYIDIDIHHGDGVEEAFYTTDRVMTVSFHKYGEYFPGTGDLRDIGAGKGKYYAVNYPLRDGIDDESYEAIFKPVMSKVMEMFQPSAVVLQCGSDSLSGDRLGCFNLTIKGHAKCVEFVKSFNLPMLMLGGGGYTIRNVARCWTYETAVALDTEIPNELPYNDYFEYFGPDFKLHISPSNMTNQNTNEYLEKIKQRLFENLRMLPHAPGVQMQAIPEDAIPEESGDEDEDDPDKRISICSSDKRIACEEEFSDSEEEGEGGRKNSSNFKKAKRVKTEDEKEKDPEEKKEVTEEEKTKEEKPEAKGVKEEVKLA

[3] = target: T2, HDAC6 (Homo sapiens, UniProt Q9UBN7)
T2 sequence (Q9UBN7 1-1215): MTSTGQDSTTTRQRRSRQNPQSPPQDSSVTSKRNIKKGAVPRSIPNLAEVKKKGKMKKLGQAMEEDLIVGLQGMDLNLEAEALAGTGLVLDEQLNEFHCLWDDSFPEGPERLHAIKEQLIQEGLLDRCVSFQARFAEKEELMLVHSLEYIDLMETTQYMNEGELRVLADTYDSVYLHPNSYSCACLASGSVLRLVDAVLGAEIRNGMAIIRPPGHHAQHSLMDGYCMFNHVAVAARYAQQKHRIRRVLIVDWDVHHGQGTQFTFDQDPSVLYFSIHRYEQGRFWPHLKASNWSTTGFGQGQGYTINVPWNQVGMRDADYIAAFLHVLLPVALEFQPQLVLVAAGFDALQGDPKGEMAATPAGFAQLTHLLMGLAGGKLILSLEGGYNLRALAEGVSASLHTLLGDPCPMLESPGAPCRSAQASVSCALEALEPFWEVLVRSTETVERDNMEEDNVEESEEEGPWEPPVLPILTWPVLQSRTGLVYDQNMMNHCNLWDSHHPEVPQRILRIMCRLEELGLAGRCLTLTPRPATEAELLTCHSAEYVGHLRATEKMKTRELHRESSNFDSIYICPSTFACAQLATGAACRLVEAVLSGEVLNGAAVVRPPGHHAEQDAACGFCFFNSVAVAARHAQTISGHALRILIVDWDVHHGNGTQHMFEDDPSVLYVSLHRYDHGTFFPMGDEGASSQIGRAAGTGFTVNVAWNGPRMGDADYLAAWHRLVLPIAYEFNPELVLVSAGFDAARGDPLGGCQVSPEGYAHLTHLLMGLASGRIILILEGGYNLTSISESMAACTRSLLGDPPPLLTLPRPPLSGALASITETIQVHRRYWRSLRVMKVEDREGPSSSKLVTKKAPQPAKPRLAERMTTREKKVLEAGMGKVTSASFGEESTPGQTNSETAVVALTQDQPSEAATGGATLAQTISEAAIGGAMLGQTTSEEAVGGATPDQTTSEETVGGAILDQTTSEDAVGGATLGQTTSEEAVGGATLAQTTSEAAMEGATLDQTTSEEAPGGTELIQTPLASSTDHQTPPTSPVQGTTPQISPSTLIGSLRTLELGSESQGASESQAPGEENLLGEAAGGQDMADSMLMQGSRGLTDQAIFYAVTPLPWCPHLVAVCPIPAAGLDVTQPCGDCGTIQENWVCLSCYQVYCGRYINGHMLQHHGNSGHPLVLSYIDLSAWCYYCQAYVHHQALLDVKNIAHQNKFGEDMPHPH

decrease in potency against HDAC8, 3a vs. 4c [1]: ~ 3 fold
decrease in potency against HDAC1, 3a vs. 4c [2]: ~ 40 fold
Structure (SMILES): CC(C)C[C@H]1CC(=O)N[C@@H](C)C(=O)N[C@@H](CSCCC(=O)O)C(=O)N[C@@H](Cc2c[nH]c3ccccc23)C(=O)N1 [4c] (cyclo(C(CH2CH2COOH)W[β3hL]A); ring closure inferred)

Structure (SMILES): CC(C)C[C@H]1CC(=O)N[C@@H](CCCNC(=N)N)C(=O)N[C@@H](CCCCCC(=O)O)C(=O)N[C@@H](Cc2cccc3ccccc23)C(=O)N1 [compound 17, c[Asu-Nal-β^3Leu-Arg]] (cyclo([Asu][1Nal][β3hL]R); ring closure inferred)
fold more potent against HDAC6 compared to Ala–aa4 analog (8b) [3]: 3–4 fold

Structure (SMILES): CCC(=O)CCCCC[C@@H]1NC(=O)[C@H]2CCCCN2C(=O)[C@H]([C@@H](C)CC)NC(=O)[C@H](Cc2cn(OC)c3ccccc23)NC1=O [1a, apicidin, reference compound]
HDAC6 inhibition (in words) [3]: did not inhibit HDAC6 in the concentration range tested
